From article PMC10076467 (EJNMMI Research, 2023)

How the values were obtained:
[1] = biological target: T1, PC12 cell σ2 receptors (Rattus norvegicus, UniProt Q5U3Y7); test: PDSP σ2 receptor binding; details: at 10 µM (Table 1 footnote: 10 µmol), PC12 cell σ2
T1 construct: endogenous in cells; host or cells: PC12 cells
T1 sequence (Q5U3Y7 1-176): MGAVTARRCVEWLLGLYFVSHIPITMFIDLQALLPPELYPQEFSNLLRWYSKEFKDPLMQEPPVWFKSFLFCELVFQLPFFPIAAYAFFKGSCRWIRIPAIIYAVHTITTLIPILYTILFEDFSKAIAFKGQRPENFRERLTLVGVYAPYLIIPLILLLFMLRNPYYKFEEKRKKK
Source text: (§1) NR2B-Me was submitted to the PDSP for assessment of binding affinity against a wide range of other receptors and binding sites. A full listing of these receptors and binding sites is given in the Supplemental Results. Detailed assay protocols are available at the PDSP website (http://pdsp.cwru.edu).
(§2) Assessment of Binding Affinity against a Wide Range of Other Receptors and Binding Sites. NR2B-Me was submitted to the National Institute of Mental Health Psychoactive Drug Screening program (NIMH-PDSP) to assess binding affinity against a wide range of other receptors and binding sites (5-HT1A, 1B, 1D, 1E, 2A, 2A agonist, 2A antagonist, 2B, 2B agonist, 2B antagonist, 2C, 2C agonist, 2C antagonist, 3, 5A, 6, 7; α2; α2β2, α2β2, α3β2, α3β4, α4β2, α4β4, α7; α1A, 1A agonist, 1B, 1B agonist, 1B antagonist, 2A-2C; AMPA*; β1-3; BZPa1-3, a5, a6, rat brain site; Ca^2+-Channel; CB1-2, D1, 2, 2 agonist, 2 antagonist, 3-5; DAT; DOR; EP1-4; GABAA,B; GPR40,41,43; H1-4; HERG; IMIDAZOLINE 1; KA-R*; KOR, KORagonist, antagonist; M1, 1 agonist, 1 antagonist, 2, 3, 3 agonist, 3 antagonist, 4, 5, 5 agonist, 5 antagonist; MDR 1; mGluR1A,2,4,5,5-cloned,5-rat brain,6,8; MOR; Na^+-Channel; NET; NK1, 1 antagonist, 2, 2 antagonist, 3, 3 antagonist; NMDA; NMDA/MK801; NT-1; OXYTOCINagonist, antagonist; PAR1agonist, antagonist; PCP; PKCA, B, D, E, G; PTHR2, Purinergicagonist, antagonist; SET; σ1,2; V1, 1 agonist, 1 antagonist, 2, 2 agonist, 2 antagonist, 3, 3 agonist, 3 antagonist, VMAT1, 2).

[2] = biological target: guinea pig σ1 receptor (Cavia porcellus, UniProt Q60492); test: PDSP σ1 receptor binding; details: 10 μM; read-out: inhibition of reference radioligand binding, guinea pig σ1 receptor
Source text: as §1, §2

[3] = biological target: hERG channel (Homo sapiens, UniProt Q12809); test: PDSP pharmacological screen, hERG channel; details: read-out: inhibition of reference radioligand binding, hERG channel
Source text: as §1
(§3) Assessment of Binding Affinity against a Wide Range of Other Receptors and Binding Sites. […]

[4] = LogD7.4 measurement (1-octanol / sodium phosphate buffer); format: physicochemical; details: 1-octanol/sodium phosphate buffer, pH 7.4; Table 1; text gives this value as measured logD7.4; read-out: cLogD7.4
Method: The radiochemical purity of the radioligand was measured via HPLC. […] Aliquots (1 mL) were distributed to each of eight borosilicate disposable culture tubes (13 × 100 mm). Six tubes were extracted with buffer pre-treated 1-octanol (1 mL) by vortexing for one minute and then centrifuged for one minute. The organic and aqueous phases were separated. Samples of organic phase (50 µL) and aqueous phase (50 µL) were taken and separately measured for radioactivity. The remaining two tubes containing radioactivity in buffer were analyzed with HPLC to check for any decrease in radiochemical purity over the time-span of the experiment. […] LogD was calculated as log[(cpm/mL for 1-octanol phase)/(cpm/mL for aqueous phase)] using Pallas for Windows software (CompuDrug Inc.).

[5] = test system: numerous binding sites and receptors; test: PDSP pharmacological screen, other receptors and binding sites; details: 10 μM; not greater than 10% for sites other than calcium channel, hERG, σ1, σ2
Source text: as §1, §3

[6] = pKa measurement (cyclohexane / sodium phosphate buffers); format: physicochemical; details: cyclohexane/sodium phosphate buffer; distribution between cyclohexane and sodium phosphate buffers; read-out: pKa (apparent)
[7] = test system: calcium channel; test: PDSP pharmacological screen, calcium channel; format: binding; details: 10 μM
Source text: as §1, §3

Sequence of hERG channel (Q12809 whole entry): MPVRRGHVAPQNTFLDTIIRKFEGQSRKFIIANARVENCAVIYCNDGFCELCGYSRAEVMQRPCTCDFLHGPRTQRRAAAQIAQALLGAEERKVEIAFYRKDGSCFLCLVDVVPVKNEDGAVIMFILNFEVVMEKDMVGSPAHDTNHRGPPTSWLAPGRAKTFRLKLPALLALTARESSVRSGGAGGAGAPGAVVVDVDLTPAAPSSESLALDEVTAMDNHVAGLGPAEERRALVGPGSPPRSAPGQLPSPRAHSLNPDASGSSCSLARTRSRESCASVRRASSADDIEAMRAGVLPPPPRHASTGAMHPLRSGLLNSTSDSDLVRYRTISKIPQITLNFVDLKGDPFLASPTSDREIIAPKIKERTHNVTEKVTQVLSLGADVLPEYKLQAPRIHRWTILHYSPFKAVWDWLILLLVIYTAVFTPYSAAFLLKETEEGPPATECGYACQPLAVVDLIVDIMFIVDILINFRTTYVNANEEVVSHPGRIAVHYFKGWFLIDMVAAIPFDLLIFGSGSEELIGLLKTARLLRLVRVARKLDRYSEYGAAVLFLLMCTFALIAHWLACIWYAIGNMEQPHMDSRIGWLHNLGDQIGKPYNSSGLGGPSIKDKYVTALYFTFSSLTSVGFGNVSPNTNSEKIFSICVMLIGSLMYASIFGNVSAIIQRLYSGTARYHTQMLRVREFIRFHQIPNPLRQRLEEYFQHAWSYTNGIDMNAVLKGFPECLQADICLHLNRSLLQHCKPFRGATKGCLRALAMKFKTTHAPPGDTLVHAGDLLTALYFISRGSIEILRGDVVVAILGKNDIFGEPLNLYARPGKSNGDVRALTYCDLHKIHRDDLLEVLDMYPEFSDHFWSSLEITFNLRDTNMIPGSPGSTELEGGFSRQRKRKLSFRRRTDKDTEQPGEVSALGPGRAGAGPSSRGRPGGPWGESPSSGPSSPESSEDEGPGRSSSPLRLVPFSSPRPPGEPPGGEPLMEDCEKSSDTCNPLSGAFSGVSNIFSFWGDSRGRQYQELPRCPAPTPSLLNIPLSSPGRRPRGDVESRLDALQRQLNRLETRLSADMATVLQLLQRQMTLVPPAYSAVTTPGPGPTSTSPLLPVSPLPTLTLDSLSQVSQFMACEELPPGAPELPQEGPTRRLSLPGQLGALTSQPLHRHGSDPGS
Sequence of guinea pig σ1 receptor (Q60492 whole entry): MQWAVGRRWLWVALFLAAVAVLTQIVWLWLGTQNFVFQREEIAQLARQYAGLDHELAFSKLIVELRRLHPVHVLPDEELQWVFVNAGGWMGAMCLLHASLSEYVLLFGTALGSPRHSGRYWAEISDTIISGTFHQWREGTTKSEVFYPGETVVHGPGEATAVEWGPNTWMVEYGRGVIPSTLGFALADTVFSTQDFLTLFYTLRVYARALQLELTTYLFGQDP

- inhibition at 10 µM [1]: 90.7%
- σ2 inhibition ([1]; 10 µM): 91%
- inhibition at 10 µM [2]: 89.7%
- logD [4]: 3.27
- pKa [6]: 5.04
- inhibition of reference radioligand binding, calcium channel [7]: 39.6%
SMILES: COc1ccc2c(c1)CCN(CCCCc1ccc(C)cc1)CC2O (centres unmarked) [NR2B-Me, 7-methoxy-3-(4-(p-tolyl)butyl)-2,3,4,5-tetrahydro-1H-benzo[d]azepin-1-ol]
- inhibition at 10 µM [3]: 61.7%
- inhibition of reference radioligand binding, numerous other binding sites and receptors [5]: only weakly inhibited
